# US12146004B2, “Polymyxin compounds and uses thereof” (priority 2014, dated 2024)
# Bridge positions count the residues as written; N and C are the ends. Square brackets hold non-standard residues; d marks the D form. Peptide text beside a SMILES is read from it. * marks the point of attachment. X14 = CC(C)c1ccc(CO[C@@H](CCN)C(=O)*)cc1; X26 = NCC[C@H](OCC1CCCCC1)C(=O)*; dCha = N[C@H](CC1CCCCC1)C(=O)O; X19 = NCCC(C(=O)*)C1CCCCC1; Dab = NCC[C@H](N)C(=O)O; Dap = NC[C@H](N)C(=O)O
# Key:
# Assay type in all cases: cell-based
# [1] = tested on: Acinetobacter baumannii
# How it was run: (§1)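 In vitro susceptibility was determined across up to nine strains of each pathogen, some resistant. Potency is given as MIC, μg/mL.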
# [2] = tested on: Escherichia coli
# How it was run: as §1
# [3] = tested on: Klebsiella pneumoniae
# How it was run: as §1
# [4] = tested on: Pseudomonas aeruginosa
# How it was run: as §1
SMILES,MIC A. baumanii 053 [1] [µg/mL],MIC A. baumanii 056 [1] [µg/mL],MIC A. baumanii ATCC BAA-747 [1] [µg/mL],MIC A. baumanii NCTC 13424 [1] [µg/mL],MIC E. coli 058 [2] [µg/mL],MIC E. coli 061 [2] [µg/mL],MIC E. coli ATCC 25922 [2] [µg/mL],MIC K. pneumoniae 063 [3] [µg/mL],MIC K. pneumoniae 065 [3] [µg/mL],MIC K. pneumoniae ATCC 13882 [3] [µg/mL],MIC P. aeruginosa 070 [4] [µg/mL],MIC P. aeruginosa ATCC 27853 [4] [µg/mL],MIC P. aeruginosa CCUG 59347 [4] [µg/mL],MIC E. coli NCTC 9001 [2] [µg/mL],MIC P. aeruginosa 068 [4] [µg/mL]
"CC(C)C[C@@H]1NC(=O)[C@@H](CC2CCCCC2)NC(=O)[C@H](CCN)NC(=O)[C@@H](NC(=O)[C@H](CN)NC(=O)[C@@H](NC(=O)[C@H](CCN)OCC2CCCCC2)[C@@H](C)O)CCNC(=O)[C@H]([C@@H](C)O)NC(=O)[C@H](CCN)NC(=O)[C@H](CCN)NC1=O [Example 84, (S)-4-amino-2-(cyclohexyl-methoxy) butanoyl L-Thr-L-Dap-polymyxin [D-cyclohexylalanine-6]heptapeptide.] (X26-T[Dap][Dab][Dab][dCha]L[Dab][Dab]T; lactam 3-C)",>32,32,0.25,0.25,8,8,0.125,32,4,0.25,8,0.25,0.5,,
"CC(C)C[C@@H]1NC(=O)[C@@H](CC2CCCCC2)NC(=O)[C@H](CCN)NC(=O)[C@@H](NC(=O)[C@H](CN)NC(=O)[C@@H](NC(=O)C(CCN)C2CCCCC2)[C@@H](C)O)CCNC(=O)[C@H]([C@@H](C)O)NC(=O)[C@H](CCN)NC(=O)[C@H](CCN)NC1=O (stereo partly drawn) [Example 85, 4-amino-2-cyclohexylbutanoyl L-Thr-L-Dap-polymyxin [D-cyclohexylalanine-6]heptapeptide.] (X19-T[Dap][Dab][Dab][dCha]L[Dab][Dab]T; lactam 3-C)",64,64,0.125,0.125,4,16,0.125,8,0.5,0.5,4,0.5,0.5,0.06,2
"CC(C)C[C@@H]1NC(=O)[C@@H](CC2CCCCC2)NC(=O)[C@H](CCN)NC(=O)[C@@H](NC(=O)[C@H](CN)NC(=O)[C@@H](NC(=O)[C@H](CCN)OCc2ccc(C(C)C)cc2)[C@@H](C)O)CCNC(=O)[C@H]([C@@H](C)O)NC(=O)[C@H](CCN)NC(=O)[C@H](CCN)NC1=O [Example 88, (S)-4-amino-2-((4-isopropylbenzyl)oxy)butanoyl L-Thr-L-Dap-polymyxin [D-cyclohexylalanine-6]heptapeptide] (X14-T[Dap][Dab][Dab][dCha]L[Dab][Dab]T; lactam 3-C)",64,32,0.25,0.125,2,16,0.25,64,0.5,0.25,4,0.25,0.5,0.25,4
